Patent US20130274352A1, “Oral Drug Devices and Drug Formulations” (The Regents of the University of California, priority 2009, published 2013)
Read-outs that look alike come from different tables or passages of the source.

Assays:
Caco-2 cells [1] = assay: Toxicity potential (TP) by MTT assay and synergy (S) of mixtures; format: cell-based, human
Experimental: As used herein “toxicity potential” or “TP” is used to assess the safety of CPEs and refers to the toxicity of one or more CPEs as determined using a Methyl Thiazole Tetrazolium (MTT) kit (American Type Culture Collection, Rockville, Md.). Caco-2 cells were seeded at 10^5 cells/well onto a 96-well plate. Enhancer solutions (100 μl) were applied for 30 minutes. 10 μl of reagent from an MTT kit (American Type Culture Collection, Rockville, Md.) was applied to each well for 5 hours, after which 100 μl of detergent was applied to each well and allowed to incubate in the dark at room temperature for about 40 hours. Absorbance was read at 570 nm (MTT dye) and 650 nm (detergent).
TP values are reported as the fraction of nonviable cells, as compared to the negative control, DMEM. TP values range from 0 to 1, with 0 indicating no mitrochondrial toxicity, and 1 representing maximum toxicity.
As used herein “synergy” or “S” refers to the difference between the linear average of the toxicity of the individual components and the experimentally measured toxicity of the mixture. Synergy was calculated as follows:
S=[X1·TP1+X2·TP2+X3·TP3]−TPmix Eq. 3
where X1, X2, and X3 are the weight fractions of single enhancers 1, 2, and 3, respectively, and TP1, TP2, TP3, and TPmix are the toxicity potentials of pure CPE 1, pure CPE 2, pure CPE 3, and the mixture of CPEs at the corresponding weight fractions X1, X2, and X3. All TP values in the equation above are obtained at the same total concentration. Since TP values can range from 0 to 1, maximum and minimum Synergy values are 1 and −1, respectively.
Caco-2 cells were seeded at 10^5 cells/well onto a 96-well plate. Enhancer solutions (100 μl) were applied for 30 minutes. 10 μl of reagent from an MTT kit (American Type Culture Collection, Rockville, Md.) was applied to each well for 5 hours, after which 100 μl of detergent was applied to each well and allowed to incubate in the dark at room temperature for about 40 hours. Absorbance was read at 570 nm (MTT dye) and 650 nm (detergent). Toxicity potential (TP) values are reported as the fraction of nonviable cells, as compared to the negative control, DMEM. TP values range from 0 to 1, with 0 indicating no mitrochondrial toxicity, and 1 representing maximum toxicity.

Caco-2 cells [2] = assay: Calcein entry into epithelial cells, fluorescence microscopy; format: cell-based, human; conditions: 0.01% PPS, 0.01% (w/v) calcein
Experimental: A solution containing a permeation enhancer and 0.01% (w/v) calcein dissolved in phosphate buffered saline was applied to Caco-2 cells. After 30 minutes, solutions were removed and replaced with a solution containing only calcein. After 1 hour, samples were washed 3× with phosphate buffered saline and viewed with a Zeiss fluorescence microscope.

Caco-2 monolayers [3] = assay: TEER over time with PPS (Example 5); format: cell-based, human; conditions: for decrease in TEER (% of initial value): 5 hours
Experimental: Caco-2 cell line HTB-37 (ATCC, Rockville, Md.), derived from human colon cells, was used for all experiments. Cells were maintained in DMEM supplemented with 25 IU/ml of penicillin, 25 mg/L of streptomycin, 250 μg/L of amphotericin B and 100 ml/L of fetal bovine serum. Monolayers were grown on BD Biocoat™ HTS collagen filter supports (BD Biosciences, Bedford, Mass.) according to supplier instructions. At the end of the growth period, the integrity of the cell monolayer was confirmed by transepithelial electrical resistance (TEER) measurements (Millicell-ERS voltohmmeter, Millipore, Billerica, Mass.). Only monolayers with TEER values in the range of 150-200 Ω-cm^2 were used for further experimentation.

Caco-2 monolayers [4] = assay: Transwell permeability of sulforhodamine-B or FITC-insulin with PPS; format: cell-based, human
Excerpt: The withdrawn sample was immediately replaced with an equivalent amount of the experimental media.

Caco-2 monolayers [5] = assay: TEER reversibility after PPS exposure; format: cell-based, human; conditions: 0.03% w/v PPS for 10 minutes or 1 hour; within 24 hours of removal
Caco-2 monolayer [6] = assay: Confocal laser microscopy of FITC-insulin permeation with PPS; format: cell-based, human; conditions: 5 hours
Excerpt: Following fixation, cells were gently washed with HBSS, membranes gently removed from the plastic insert, and were mounted on a microscopy slide with DAPI containing cell mounting media (Vectashield® Hardset®, Vector Laboratories, Burlingame, Calif.). All samples were imaged on a confocal microscope (Leica and Olympus Fluoview 500).

[7] = Plasma sCT concentration after intestinal injection of sCT with or without PPS; format: in vivo, rat; conditions: 1% w/v PPS with sCT 3 mg/kg, SD rats
Experimental: Adult male Sprague-Dawley (SD) rats of 275-300 g, fasted for 7 hours were used for all studies. A midline abdominal incision of 2.5-3.0 cm was made in animals anesthetized by 1.5-3.0% isoflurane to expose the gastrointestinal system. […] Incision was then closed with sterile vicryl […] (muscular), and Vetbond® tissue glue (skin). Blood samples were collected up to 5 hours by tail vein bleeding (heparinized tubes for plasma Calcium, and EDTA tubes for plasma sCT determination), and plasma was separated for analysis of both pharmacodynamic and pharmacokinetic response. Pharmacodynamic response was measured by quantifying plasma calcium levels using a colorimetric calcium assay kit (Sciencell Laboratories, Carlsbad, Calif.); and pharmacokinetic efficacy was tested by quantifying plasma concentrations of salmon calcitonin (sCT) using an extraction-free ELISA kit (Bachem Americas Inc., Torrance, Calif.) following manufacturer's protocols.

intestinal epithelium = assay: Intestinal tissue histology after PPS; format: in vivo, rat; conditions: 0.1% and 1% w/v PPS, 0.5 ml, 5 hrs, SD rats
Experimental: Histological studies were performed to evaluate the possibility of damage caused by PPS in the intestine. […] The sections were stained using hematoxylin-eosin staining and imaged at 50× magnification using an inverted light microscope to determine signs of pathological changes.

Caco-2 monolayers [8] = system: Caco-2 monolayers
Experimental: (§4) Upper filter supports containing viable Caco-2 monolayers were transferred into a 24-well BD Falcon plate and 1 ml of media was dispensed into each basolateral compartment. Solutions containing the CPE (“enhancer solutions”) were applied to the apical compartment and TEER readings were taken at 10 minutes. TEER recovery was assessed by removing enhancer solutions after 30 minutes, applying fresh media, and measuring TEER values at 24 hours.

[9] = system: Caco-2 cell line (HTB-37)
Experimental: 10 μL of MTT solution (5 mg/mL) was added to each well for 4 h (37° C.), after which 100 μL of 100% DMSO was applied and the plates were incubated for 1 hr with moderate shaking Absorbance was measured at 570 nm using a Tecan Saffire™ fluorescent microplate reader (Tecan Group Ltd, Mannedorf, Switzerland).

Caco-2 monolayers [10] = assay: Permeability of tritium-labeled mannitol or 70 kDa dextran across Caco-2 monolayers
Experimental: (§1) Solutions containing CPEs and 1 μCi/ml of tritium-labeled mannitol or 70 kDa dextran (American Radiolabeled Chemicals, St. Louis, Mo.) were applied to the apical side of Caco-2 monolayers. Samples were taken from the basolateral compartment every 10 minutes for 1 hour and the radiolabeled contents were analyzed with a scintillation counter (Packard Tri-Carb 2100 TR, Meriden, Conn.).
(§2) where ΔM is the amount of solute transported across the barrier in the time Δt, CM is the concentration of solute in the apical compartment, and Axs is the cross-sectional area of epithelium in contact with the apical solution.
(§3) Positive control experiments were performed on BD Biocoat™ filter supports in the absence of cells.

Caco-2 monolayer [11] = conditions: 0.1% enhancer (total), 10 min
Experimental: The Examples described herein used 1% Triton X-100 as the positive control.
All TEER values were normalized by their initial values.
where TEERCPE and TEER+ are the resistance values (% of initial) of the enhancer solution and positive control solution, respectively, after 10 minutes of exposure. EP lies on a scale of 0 to 1, with 1 representing maximum enhancement as compared to the positive control.
Caco-2 cell line HTB-37 (ATCC, Rockville, Md.), derived from human colon cells, was used for all experiments. Cells were maintained in DMEM supplemented with 25 IU/ml of penicillin, 25 mg/L of streptomycin, 250 ug/L of amphotericin B and 100 ml/L of fetal bovine serum. Monolayers were grown on BD Biocoat™ collagen filter supports (Discovery Labware, Bedford, Mass.) according to supplier instructions. […]
as §4

Caco-2 cells [12] = conditions: 0.1% enhancer
Experimental: Enhancer solutions (100 μl) were applied for 30 minutes. 25 μl of the solution was then transferred to a fresh 96-well plate and mixed with 25 μl of LDH reagent from the CytoTox 96® assay (Promega, Madison, Wis.) and allowed to react for 30 minutes in the dark at room temperature. Stop solution (25 μl) was then added to each well, and the absorbance was read at 490 nm. LDH potential (LP) values are reported as the fraction of maximal LDH release, as determined by the positive control lysis solution provided with the assay kit (˜1% Triton-X100).
Equation 5 was used to assess the relative contribution of transcellular and paracellular pathways to permeability of the intestinal epithelium. […] According to Equation 4, the line EP=LP corresponds to enhancers that act predominantly by the transcellular route (paracellular contributions are negligible). Enhancers lying on the vertical EP axis primarily utilize the paracellular pathway, since there is no relationship between EP and LP when transcellular contributions are negligible. The relative contribution of the paracellular pathway is higher for enhancers falling closer to the EP axis than to the EP=LP line.

in vitro = conditions: human, Caco-2
Experimental: as §1, §2, §3

B. thailendensis = assay: Minimum inhibitory concentration, broth microdilution; format: cell-based; conditions: 18 hours, 37° C.
Experimental: Minimum inhibitory concentration against B. thailendensis was determined. Broth microdilution method was followed for MIC determination. Briefly, fresh cultures were grown on the day of experiment using the protocol described below.
Low sodium Leuria-Bertani (LSLB) broth (10 g tryptone 1-1, 5 g yeast extract 1-1, 5 g NaCl 1-1) made in ultrapure water and sterilized via autoclaving (121° C., 15 min) was used for culturing B. thailendensis. Culturing protocol was same as given above for E. coli.
The cultures were adjusted to 5.5×10^5 cfu/ml and used within 30 minutes to minimize change in bacterial counts. Cultures were dispensed in 96-well cell culture polypropylene plates (Corning, Lowell, Mass.) at 90 μl/well. Serial dilutions of test formulations were made at 10× concentration. Inoculums in each well were incubated with 10 μl of test formulation dilutions for 18 hours at 37° C. under humidified conditions. At the end of incubation period, the plates were visibly inspected for bacterial growth. Colonies were counted for selected wells by plating culture dilutions on LSLB plates.

[13] = system: Primary epidermal keratinocyte cultures (HEKa); assay: Keratinocyte cytotoxicity (LC50), MTT; format: cell-based, human; conditions: HEKa cells
Experimental: Primary epidermal keratinocyte cultures from an adult human source (HEKa) were purchased from Invitrogen Corp (Carlsbad, Calif.) and used for all cytotoxicity experiments. Cells were maintained in a humidified incubator (37° C., 5% CO2), in EpiLife medium with 60 μM calcium and phenol red, supplemented with 10 ml/l human keratinocyte growth supplement, 5 IU/ml penicillin and 5 μg/ml streptomycin. All components of growth media were purchased from Invitrogen Corp (Carlsbad, Calif.). Cells were grown to 70-80% confluence in cell culture flasks (Corning, Lowell, Mass.) as per suppliers' protocols.
At the end of the growth period, keratinocyte cells were seeded at a density of 10^4 cells/well in 96-well tissue culture treated polystyrene plates (Corning, Lowell, Mass.) and incubated overnight to allow cell attachment. Cells were supplied with fresh EpiLife medium (90 μl/well) at the start of experiment, followed by application of test formulations (10 μl/well). The final concentration of test formulations in each well was 0.0001% w/v. This concentration limit was determined based on the LC50 values of component chemicals for HEKa cell line, which were determined in a separate experiment. The cells were incubated with the test formulations for 1 hour. […] The plates were incubated for 16 hours in a humidified environment and absorbance was read at 570 nm.

Compound: CCCCCCCCCC[N+](C)(C)C.[Br-] [DTAB, Decyltrimethyl ammonium bromide]
- TP (Caco-2 cells [1]; 0.1% enhancer (total), 30 min): 0.56

Compound: CCCCCCCCCCCCCCCC[N+](C)(C)CCCS(=O)(=O)[O-] [PPS, Palmityldimethyl ammonio propane sulfonate]
- TP (Caco-2 cells [1]; 0.01% (w/v) enhancer, 30 min): 0
- epithelial cells with calcein transport into the cell (Caco-2 cells [2]): more than 75%
- decrease in TEER (% of initial value) (Caco-2 monolayers [3]; 0.01% w/v PPS): 50%
- decrease in TEER (% of initial value) (Caco-2 monolayers [3]; 0.03% w/v PPS): ~70%
- drop in TEER (Caco-2 monolayers [3]; higher concentration (0.03% w/v PPS), 15 minutes): −50%
- increase in sulforhodamine transport over negative control (Caco-2 monolayers [4]; 0.01% PPS): 1.7 fold
- increase in sulforhodamine transport over negative control (Caco-2 monolayers [4]; 0.03% PPS): 2.6 fold
- enhancement of FITC-insulin transport (Caco-2 monolayers [4]; 0.03% w/v PPS): 2.3 fold
- enhancement of FITC-insulin transport (Caco-2 monolayers [4]; lower concentrations of PPS (0.01% w/v)): did not increase significantly
- TEER values returned (% of initial) (Caco-2 monolayers [5]): 90-100%
- increase of FITC-insulin transport across the monolayer (fluorescence intensity) (Caco-2 monolayer [6]; 0.01% PPS): 1.3 fold
- increase of FITC-insulin transport across the monolayer (fluorescence intensity) (Caco-2 monolayer [6]; 0.03% w/v PPS): 3.1 fold
- enhancement of systemic sCT availability based on peak plasma concentrations [7]: 45-50 fold
- pathological damage to the intestinal epithelium (intestinal epithelium): no evidences of necrosis or specific inflammation
- cell monolayer structure by TEER recovery (Caco-2 monolayers [8]): did not damage cell monolayer structure
- cell viability [9]: ~88%
- toxicity on Caco-2 cells ([9]; Caco-2): no detectable toxicity

Compound: c1ccc(N2CCNCC2)cc1 [PPZ, Phenyl piperazine]
- TP (Caco-2 cells [1]; 0.1% enhancer (total), 30 min): 0.09
- increase of 70 kDa dextran permeability (Caco-2 monolayers [10]; enhancer at 0.1%, 70 kDa dextran): > 11 fold
- increase of mannitol permeability (Caco-2 monolayers [10]; enhancer at 0.1%, mannitol): more than 14 fold
- EP (Caco-2 monolayer [11]): 0.95
- TEER recovery, % of original value (Caco-2 monolayers [8]; after removal of 0.1% PPZ, within 24 hours): 100%
- K (Caco-2 cells [12]): 0.86

Compound: CCN(CC)c1ccc2c(-c3ccc(S(=O)(=O)O)cc3S(=O)(=O)[O-])c3ccc(=[N+](CC)CC)cc-3oc2c1 [Sulforhodamine-B]
- % Transport (Caco-2 monolayers [4]; PPS 0.01%, 0.15 mg): 3.3 ± 0.4%
- Apparent Permeability (Papp) (Caco-2 monolayers [4]; PPS 0.01%, 0.15 mg): 6.0 ± 0.6 10^−6 cm/s
- % Transport (Caco-2 monolayers [4]; PPS 0.03%, 0.15 mg): 5.1 ± 0.9%
- Apparent Permeability (Papp) (Caco-2 monolayers [4]; PPS 0.03%, 0.15 mg): 9.1 ± 1.6 10^−6 cm/s
- % Transport (Caco-2 monolayers [4]; no PPS, 0.15 mg): 1.9 ± 1.3%
- Apparent Permeability (Papp) (Caco-2 monolayers [4]; no PPS, 0.15 mg): 3.5 ± 2.3 10^−6 cm/s

Compound: OC[C@@H](O)[C@@H](O)[C@H](O)[C@H](O)CO [mannitol, reference compound]
- Papp A→B at 1 h, 1 μCi/ml (in vitro): 0.43 ×10⁻⁶ cm/s

Compound: FITC-insulin: tracer molecule, FITC-insulin (˜6,000 da)
- Apparent Permeability (Papp) (Caco-2 monolayers [4]; Caco-2): 15.6 ± 0.7 10^−6 cm/s

Compound: Sodium laureth sulfate [SLA]
- TP (Caco-2 cells [1]): 0.88

Compound: benzalkoniium chloride [BZK]
- MIC (B. thailendensis): 0.00048 % w/v
- LC50 [13]: 0.00078 % w/v

Compound: dextran [reference compound]
- average permeability in the absence of CPEs (Caco-2 monolayers [10]; no CPE, Caco-2 monolayers): 4.9×10^−7±2.3×10^−7

Compound: sorbitan monolaurate [S20]
- MIC (B. thailendensis): low antibacterial potency
- LC50 [13]: negligible toxicity
